From patent publication US5478842A, “Ether derivatives having 5-lipoxygenase inhibitory activity” (Zeneca Limited, priority 1993, dated 1995)

Assays:
hepatic enzymes = test: Auto-induction on repeat dosing (decrease in C max or AUC); format: in vivo; conditions: repeated dosing to a warm-blooded animal
Source text: The result is a decrease on repeat dosing of the quantity of the compound present in the animal's blood stream as shown, for example, by a decrease in the maximum concentration achieved (C max) or, for example, a decrease in the exposure of the animal to the compound as measured by the area under the curve (AUC) of a plot of the concentration of the compound in the blood stream versus time after dosing.

5-LO (LTB4) [1] = target: T1, 5-LO (LTB4) (Homo sapiens, UniProt P09917); test: Test a): in vitro assay in heparinised human blood challenged with calcium ionophore A23187, LTB4 by radioimmunoassay; format: cell-based
T1 construct: incubating a test compound with heparinised human blood, prior to challenge with the calcium ionophore A23187; from tissue; host or cells: heparinised human whole blood (endogenous enzyme of blood cells)
T1 sequence (P09917 1-674): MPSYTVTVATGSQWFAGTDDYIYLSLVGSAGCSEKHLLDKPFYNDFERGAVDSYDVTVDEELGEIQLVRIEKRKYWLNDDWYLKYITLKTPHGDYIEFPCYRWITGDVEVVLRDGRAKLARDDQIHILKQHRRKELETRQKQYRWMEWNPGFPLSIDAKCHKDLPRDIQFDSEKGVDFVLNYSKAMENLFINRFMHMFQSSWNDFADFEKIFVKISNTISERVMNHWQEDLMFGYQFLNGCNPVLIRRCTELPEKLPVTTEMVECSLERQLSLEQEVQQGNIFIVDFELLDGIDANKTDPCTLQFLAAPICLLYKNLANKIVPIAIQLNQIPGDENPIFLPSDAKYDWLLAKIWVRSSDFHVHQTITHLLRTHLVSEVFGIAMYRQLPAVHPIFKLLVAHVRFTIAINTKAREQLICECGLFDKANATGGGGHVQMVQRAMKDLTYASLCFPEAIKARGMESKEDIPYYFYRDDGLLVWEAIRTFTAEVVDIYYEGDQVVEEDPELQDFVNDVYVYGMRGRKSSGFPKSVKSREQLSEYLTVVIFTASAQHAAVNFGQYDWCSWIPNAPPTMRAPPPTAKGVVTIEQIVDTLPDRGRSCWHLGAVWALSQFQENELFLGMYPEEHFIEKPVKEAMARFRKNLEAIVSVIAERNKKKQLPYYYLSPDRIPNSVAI
Method: a) An in vitro assay system involving incubating a test compound with heparinised human blood, prior to challenge with the calcium ionophore A23187 and then indirectly measuring the inhibitory effects on 5-L0 by assaying the amount of LTB4 using specific radioimmunoassays described by Carey and Forder (F. Carey and R. A. Forder, Prostaglandins, Leukotrienes Med., 1986, 22, 57; Prostaglandins, 1984, 28, 666; Brit. J. Pharmacol. 1985, 84, 34P) which involve the use of a protein-LTB4 conjugate produced using the procedure of Young et alia (Prostaglandins, 1983, 26(4), 605-613). The effects of a test compound on the enzyme cyclooxygenase (which is involved in the alternative metabolic pathway for arachidonic acid and gives rise to prostaglandins, thromboxanes and related metabolites) may be measured at the same time using the specific radioimmunoassay for thromboxane B2(TxB2) described by Carey and Forder (see above). This test provides an indication of the effects of a test compound against 5-L0 and also cyclooxygenase in the presence of blood cells and proteins. It permits the selectivity of the inhibitory effect on 5-L0 or cyclooxygenase to be assessed.

5-LO (LTB4) [2] = target: T2, 5-LO (LTB4) (Rattus norvegicus, UniProt P12527); test: Test c): in vivo zymosan-induced LTB4 liberation in air pouch of male rats, oral; conditions: 3 h; test c)
T2 construct: An in vivo system involving measuring the effects of a test compound administered orally to a group of male rats; from tissue; host or cells: live male rats, zymosan-inflamed subcutaneous air pouch (endogenous enzyme)
T2 sequence (P12527 1-673): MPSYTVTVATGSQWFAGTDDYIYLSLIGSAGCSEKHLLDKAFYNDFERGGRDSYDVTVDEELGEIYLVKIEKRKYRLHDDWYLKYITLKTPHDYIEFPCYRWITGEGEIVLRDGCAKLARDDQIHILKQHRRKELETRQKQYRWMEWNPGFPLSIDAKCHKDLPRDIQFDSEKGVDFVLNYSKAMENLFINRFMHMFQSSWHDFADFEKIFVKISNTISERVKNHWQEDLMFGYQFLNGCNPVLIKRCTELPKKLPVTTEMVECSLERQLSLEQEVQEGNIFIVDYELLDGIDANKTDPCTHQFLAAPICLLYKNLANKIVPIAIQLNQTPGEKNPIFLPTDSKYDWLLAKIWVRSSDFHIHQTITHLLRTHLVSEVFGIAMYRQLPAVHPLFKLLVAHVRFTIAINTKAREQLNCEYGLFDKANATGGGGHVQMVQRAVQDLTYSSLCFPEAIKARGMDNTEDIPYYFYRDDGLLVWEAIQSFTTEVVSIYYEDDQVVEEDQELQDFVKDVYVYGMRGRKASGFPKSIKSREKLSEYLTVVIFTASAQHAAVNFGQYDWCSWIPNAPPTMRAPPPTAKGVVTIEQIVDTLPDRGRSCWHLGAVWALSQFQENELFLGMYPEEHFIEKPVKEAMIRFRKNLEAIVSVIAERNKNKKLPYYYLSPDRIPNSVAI
Method: c) An in vivo system involving measuring the effects of a test compound administered orally to a group of male rats against the liberation of LTB4 induced by zymosan within an air pouch generated within the subcutaneous tissue of the back of the rats. The rats are anaesthetised and air pouches are formed by the injection of sterile air (20 ml). A further injection of air (10 ml) is similarly given after 3 days. At 6 days after the initial air injection the test compound is administered (usually orally as the suspension produced when a solution of the test compound in dimethylsulphoxide is added to hydroxypropylmethylcellulose), followed by the intrapouch injection of zymosan (1 ml of a 1% suspension in physiological saline). After 3 hours the rats are killed, the air pouches are lavaged with physiological saline, and the specific radioimmunoassay described above is used to assay LTB4 in the washings. This test provides an indication of inhibitory effects against 5-L0 in an inflammatory milieu.
Test c): oral ED50 (LTB4) in the range, for example, 0.1-100 mg/kg.

[3] = Crystallinity / physical form; format: physicochemical
Source text: Such non-crystalline compounds are undesirable when consideration is given toward the preparation, purification, analysis, handling and formulation of larger quantities of the compounds.
In another aspect of the invention we have discovered that certain compounds of the invention are crystalline. The crystalline compounds of the invention are those for which a melting point has been given within the Examples provided hereinafter, for example the compounds of Examples 27 and 28. Thus such compounds are of value when their preparation on a larger scale is required. The purification, analysis and handling of a material is facilitated if it is formed in the crystalline state. It is known, for example, that the removal of solvent residues from non-crystalline, oily materials is problematical. In addition the preparation of a pharmaceutical composition comprising a crystalline material is a conventional procedure. The composition may, for example, be in a form suitable for oral use such as a tablet or capsule; or, for example, in a form suitable for administration by inhalation, for example as a finely divided powder or a microcrystalline form. Such options for the formulation of the material are precluded should it be formed in an oily state.

SMILES	auto-induction (hepatic enzymes)	IC50 (5-LO (LTB4) [1]) [nM]	ED50 (5-LO (LTB4) [2]) [mg/kg]	crystallinity / physical form [3]
C[C@H]1C[C@@](O)(c2csc(S(=O)(=O)c3ccc4c(c3)CCC(=O)N4C)c2)CCO1 [Example 9, (2S,4R)-4-hydroxy-2-methyl-4-[2-(1-methyl-2-oxo-1,2,3,4-tetrahydroquinolin-6-ylsulphonyl)thien-4-yl]tetrahydropyran]	lack to a substantial degree the undesirable property of auto-induction	–	–	–
C[C@H]1C[C@@](O)(c2csc(Sc3ccc4c(c3)CC(=O)N4C)c2)CCO1 [Example 28, (2S,4R)-4-hydroxy-2-methyl-4-[2-(1-methyl-2-oxoindolin-5-ylthio)thien-4-yl]tetrahydropyran]	lack to a substantial degree the undesirable property of auto-induction	20	~0.05	crystalline
C[C@H]1C[C@@](O)(c2cc(F)cc(S(=O)(=O)c3ccc4c(c3)CCC(=O)N4C)c2)CCO1 [Example 2, (2S,4R)-4-[5-fluoro-3-(1-methyl-2-oxo-1,2,3,4-tetrahydroquinolin-6-ylsulphonyl)phenyl]-4-hydroxy-2-methyltetrahydropyran]	–	30	~0.15	–
CO[C@]1(c2ccc(Sc3ccc4c(c3)CCC(=S)N4C)s2)CCO[C@@H](C)C1 [(2S,4R)-4-methoxy-2-methyl-4-[5-(1-methyl-2-thioxo-1,2,3,4-tetrahydroquinolin-6-ylthio)thien-2-yl]tetrahydropyran, reference compound]	–	–	–	viscous oil
COC1(c2ccc(Sc3ccc4c(c3)CCC(=O)N4C)s2)CCOCC1 [4-methoxy-4-[5-(1-methyl-2-oxo-1,2,3,4-tetrahydroquinolin-6-ylthio)thien-2-yl]tetrahydropyran, reference compound]	possesses the undesirable property of auto-induction	–	–	–
C[C@H]1C[C@@](O)(c2cnc(Sc3ccc4c(c3)CCC(=O)N4C)s2)CCO1 [Example 3, (2S,4R)-4-hydroxy-2-methyl-4-[2-(1-methyl-2-oxo-1,2,3,4-tetrahydro-quinolin-6-ylthio)thiazol-5-yl]tetrahydropyran]	lack to a substantial degree the undesirable property of auto-induction	50	~0.2	–
C[C@H]1C[C@@](O)(c2cnc(Sc3ccc4c(c3)CC(=O)N4C)s2)CCO1 [Example 27, (2S,4R)-4-hydroxy-2-methyl-4-[2-(1-methyl-2-oxoindolin-5-ylthio)thiazol-5-yl]tetrahydropyran]	–	–	–	crystalline
C[C@H]1C[C@@](O)(c2csc(Sc3ccc4c(c3)CCC(=O)N4C)c2)CCO1 [Example 5, (2S,4R)-4-hydroxy-2-methyl-4-[2-(1-methyl-2-oxo-1,2,3,4-tetrahydroquinolin-6-ylthio)thien-4-yl]tetrahydropyran]	–	30	~0.02	–
